Assay results from US20230117034A1, “PYRAZOLOTRIAZINES” (Bayer Aktiengesellschaft, priority 2019, published 2023).
pIC50: −log10 of the molar value.

Legend:
[1] = test system: BRCA1 mRNA expression in MDA-MB-231 cells; assay: qRT-PCR assay: BRCA1 mRNA expression in MDA-MB-231; assay type: cell-based, human; details: Homo sapiens, MDA-MB-231, Inhibition of BRCA1 mRNA expression in MDA-MB-231 cells; median; read-out: RTqPCR-MDA-MB-231, IC50, BRCA1 (median)
Description: 3. qRT-PCR Assay: BRCA, ATR, MCL1 in MDA-MB-231, CAL-120
Tissue cultured human MDA-MB-231 human breast cancer cells were plated in 500 microL per well at 200,000 cells/well in a 24 well microtiter plate. After 24 h, the cells were exposed continuously for 24 h to test substances (substances were added with Tecan HP 0300 Dispenser). RNA was prepared using Qiagen RNeasy MiniKit (#74106), RNA was quantified using a NanoDrop Equipment, and 600 nano gamms of RNA was coverted to cDNA using a SuperScript VILO kit (Thermofisher #11755050) followed by qPCR amplification. BRCA1 and ATR gene expression was measured by RT-qPCR and normalised to GAPDH housekeeping gene expression. qPCR primer sets have been purchased from Thermo Fisher Scientific/Applied Biosystems: BRCA1, #Hs 01556193; ATR, #Hs 00992123; GAPDH, #Hs 03929097.

[2] = molecular target: CDK12/CycK (Homo sapiens, UniProt Q9NYV4); assay: CDK12/CycK high ATP kinase assay (TR-FRET, 2 mM ATP); assay type: biochemical; details: 2 mM ATP (high ATP); median; read-out: CDK12/CyclinK, 2 mM ATP (high ATP), IC50-[mol/l] (median)
Description: In the context of the present invention, the term “IC50 CDK12 hATP” refers to the IC50 values obtained according to the assay described in this section (2.2) herein below, i.e. the IC50 values for the inhibition of CDK12 at high (2 mM) ATP.
CDK12/CycK-inhibitory activity of compounds of the present invention at 2 millimol/L adenosine-tri-phosphate (ATP) was quantified employing the TR-FRET (TR-FRET=Time Resolved Fluorescence Energy Transfer) based CDK12/CycK activity inhibition assay as described in the following paragraphs.
A complex of human recombinant CDK12 and human recombinant CycK (both N-terminally His-tagged, expression and purification as described above) was used as enzyme. As substrate for the kinase reaction biotinylated peptide biotin-Ahx-KFELLPTPPLSPSRRSGL (C-terminus in amid form) was used which can be purchased e.g. form the company Biosyntan (Berlin-Buch, Germany).
For the assay 50 nanoL of a 100 fold concentrated solution of the test compound in DMSO was pipetted into either a black low volume 384 well microtiter plate or a black 1536 well microtiter plate (both Greiner Bio-One, Frickenhausen, Germany), 2 microL of a solution of CDK12/CycK in aqueous assay buffer [25 millimol/L HEPES pH 7.5, 20 millimol/L MgCl2, 5 millimol/L β-glycerophosphate, 2 millimol/L EGTA, 1.0 millimol/L dithiothreitol, 0.01% (v/v) Nonidet-P40 (Sigma), 0.01% (w/v) bovine serum albumin] were added and the mixture was incubated for 15 min at 22° C. to allow pre-binding of the test compounds to the enzyme before the start of the kinase reaction. Then the kinase reaction was started by the addition of 3 microL of a solution ATP (3.33 millimol/L=>final conc. in the 5 microL assay volume is 2 millimol/L) and substrate (1.67 micromol/L=>final conc. in the 5 microL assay volume is 1 micromol/L) in assay buffer and the resulting mixture was incubated for a reaction time of 60 min at 22° C. The concentration of CDK12/CycK was adjusted depending of the activity of the enzyme lot and was chosen appropriate to have the assay in the linear range, typical concentrations were about 0.75 nanomol/L. The reaction was stopped by the addition of 3 microL of a solution of TR-FRET detection reagents (125 nanomol/L streptavidine-XL665 [Cisbio Bioassays, Codolet, France] and 0.67 nanomol/L anti-Phospho-c-Myc (Ser 62) (E1J4K)-antibody from Cell Signalling [#13748] and 2 nanomol/L LANCE EU-W1024 labeled anti-rabbit IgG antibody [Perkin-Elmer, product no. 0083]) in an aqueous EDTA-solution (133 millimol/L EDTA, 0.27% (w/v) bovine serum albumin in 66.7 millimol/L HEPES pH 7.5).
The resulting mixture was incubated 1 h at 22° C. to allow the formation of complex between the phosphorylated biotinylated peptide and the detection reagents. Subsequently the amount of phosphorylated substrate was evaluated by measurement of the resonance energy transfer from the Eu-chelate to the streptavidine-XL. Therefore, the fluorescence emissions at 620 nm and 665 nm after excitation at 350 nm was measured in a TR-FRET reader, e.g. a Pherastar FS (BMG Labtechnologies, Offenburg, Germany) or a Viewlux (Perkin-Elmer). The ratio of the emissions at 665 nm and at […] was taken as the measure for the amount of phosphorylated substrate. The data were normalised (enzyme reaction without inhibitor=0% inhibition, all other assay components but no enzyme=100% inhibition).

Sequence of CDK12/CycK (Q9NYV4 with tags, fused parts or gaps): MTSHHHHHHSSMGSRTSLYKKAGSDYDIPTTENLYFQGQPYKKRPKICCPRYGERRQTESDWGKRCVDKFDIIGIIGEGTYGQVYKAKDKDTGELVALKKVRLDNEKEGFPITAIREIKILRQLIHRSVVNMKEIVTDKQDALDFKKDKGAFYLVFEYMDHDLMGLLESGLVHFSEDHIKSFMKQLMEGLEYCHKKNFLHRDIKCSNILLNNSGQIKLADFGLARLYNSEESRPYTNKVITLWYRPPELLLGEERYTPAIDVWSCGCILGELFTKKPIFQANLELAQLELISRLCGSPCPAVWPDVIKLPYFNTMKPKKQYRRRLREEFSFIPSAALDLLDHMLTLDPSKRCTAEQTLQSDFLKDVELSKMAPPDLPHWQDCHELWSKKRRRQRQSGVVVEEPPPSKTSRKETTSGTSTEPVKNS
Sequence of CDK12/CycK (O75909 1-300 partner limits assumed): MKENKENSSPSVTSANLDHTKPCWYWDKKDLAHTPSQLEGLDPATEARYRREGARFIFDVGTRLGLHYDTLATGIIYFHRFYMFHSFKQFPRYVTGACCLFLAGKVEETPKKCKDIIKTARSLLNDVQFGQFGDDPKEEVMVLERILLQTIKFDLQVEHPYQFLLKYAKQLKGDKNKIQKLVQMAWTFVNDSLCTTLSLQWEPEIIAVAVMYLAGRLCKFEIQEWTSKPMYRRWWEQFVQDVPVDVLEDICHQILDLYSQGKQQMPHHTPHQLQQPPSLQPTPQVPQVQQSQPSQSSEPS

| pIC50 [1] | pIC50 [2] | Compound |
| --- | --- | --- |
| 8.15 | 5.76 | Brc1cnn2c(NCc3nc4ccccc4[nH]3)nc(N3CCOCC3)nc12 [Example 4, N-[(1H-benzimidazol-2-yl)methyl]-8-bromo-2-(morpholin-4-yl)pyrazolo[1,5-a][1,3,5]triazin-4-amine] |
| 7.63 | 5.29 | CC(C)c1cnn2c(NCc3nc4ccccc4[nH]3)nc(N(C)CC(C)(C)O)nc12 [Example 5, 1-{[4-{[(1H-benzimidazol-2-yl)methyl]amino}-8-(propan-2-yl)pyrazolo[1,5-a][1,3,5]triazin-2-yl](methyl)amino}-2-methylpropan-2-ol] |
| 8.27 | 5.75 | CC(C)c1cnn2c(NCc3nc4ccccc4[nH]3)nc(N3CCOC[C@@H]3C)nc12 [Example 6, N-[(1H-benzimidazol-2-yl)methyl]-2-[(3S)-3-methylmorpholin-4-yl]-8-(propan-2-yl)pyrazolo[1,5-a][1,3,5]triazin-4-amine] |
| 6.69 | 4.99 | CC(C)c1cnn2c(NCc3nc4ccccc4[nH]3)nc(N3CCOC[C@H]3C)nc12 [Example 7, N-[(1H-benzimidazol-2-yl)methyl]-2-[(3R)-3-methylmorpholin-4-yl]-8-(propan-2-yl)pyrazolo[1,5-a][1,3,5]triazin-4-amine] |
| 7.03 | < 4.70 | CC(C)c1cnn2c(NCc3nc4ccccc4[nH]3)nc(N3CCCOCC3)nc12 [Example 8, N-[(1H-benzimidazol-2-yl)methyl]-2-(1,4-oxazepan-4-yl)-8-(propan-2-yl)pyrazolo[1,5-a][1,3,5]triazin-4-amine] |
| 6.59 | < 4.70 | CC(C)c1cnn2c(NCc3nc4ccccc4[nH]3)nc(N3CC4(COC4)C3)nc12 [Example 9, N-[(1H-benzimidazol-2-yl)methyl]-2-(2-oxa-6-azaspiro[3.3]heptan-6-yl)-8-(propan-2-yl)pyrazolo[1,5-a][1,3,5]triazin-4-amine] |
| 7.60 | 5.06 | CC(C)c1cnn2c(NCc3nc4ccccc4[nH]3)nc(NCC(C)(C)O)nc12 [Example 10, 1-{[4-{[(1H-benzimidazol-2-yl)methyl]amino}-8-(propan-2-yl)pyrazolo[1,5-a][1,3,5]triazin-2-yl]amino}-2-methylpropan-2-ol] |
| 6.65 | 5.06 | CC1(C)CN(c2nc(NCc3nnc(-c4ccccc4)[nH]3)n3ncc(C4CC4)c3n2)CCO1 [Example 94, 8-cyclopropyl-2-(2,2-dimethylmorpholin-4-yl)-N-[(5-phenyl-4H-1,2,4-triazol-3-yl)methyl]pyrazolo[1,5-a][1,3,5]triazin-4-amine] |
| 6.83 | < 4.70 | Fc1ccccc1-c1cnn2c(NCc3nc4ccccc4[nH]3)nc(N3CCOCC3)nc12 [Example 95, N-[(1H-benzimidazol-2-yl)methyl]-8-(2-fluorophenyl)-2-(morpholin-4-yl)pyrazolo[1,5-a][1,3,5]triazin-4-amine] |
| 7.53 | 5.33 | Clc1ccccc1-c1cnc(CNc2nc(N3CCOCC3)nc3c(Br)cnn23)[nH]1 [Example 96, 8-bromo-N-{[5-(2-chlorophenyl)-1H-imidazol-2-yl]methyl}-2-(morpholin-4-yl)pyrazolo[1,5-a][1,3,5]triazin-4-amine] |
| 8.77 | 6.10 | Fc1cccc2[nH]c(CNc3nc(N4CCOCC4)nc4c(Br)cnn34)nc12 [Example 97, 8-bromo-N-[(4-fluoro-1H-benzimidazol-2-yl)methyl]-2-(morpholin-4-yl)pyrazolo[1,5-a][1,3,5]triazin-4-amine] |
| 7.10 | 5.97 | Cc1ccc(-c2nnc(CNc3nc(N4CCOCC4)nc4c(Br)cnn34)[nH]2)cc1F [Example 98, 8-bromo-N-{[5-(3-fluoro-4-methylphenyl)-4H-1,2,4-triazol-3-yl]methyl}-2-(morpholin-4-yl)pyrazolo[1,5-a][1,3,5]triazin-4-amine] |
| 7.95 | 5.81 | Fc1ccc(-c2nnc(CNc3nc(N4CCOCC4)nc4c(Br)cnn34)[nH]2)cc1F [Example 99, 8-bromo-N-{[5-(3,4-difluorophenyl)-4H-1,2,4-triazol-3-yl]methyl}-2-(morpholin-4-yl)pyrazolo[1,5-a][1,3,5]triazin-4-amine] |
| – | 5.09 | NCCCc1cccc2[nH]c(CNc3nc(N4CCOCC4)nc4c(Br)cnn34)nc12.O=CO [Example 114, formic acid-N-{[4-(3-aminopropyl)-1H-benzimidazol-2-yl]methyl}-8-bromo-2-(morpholin-4-yl)pyrazolo[1,5-a][1,3,5]triazin-4-amine (1/1)] |
| – | 4.94 | CC(=O)NCCCc1cccc2[nH]c(CNc3nc(N4CCOCC4)nc4c(Br)cnn34)nc12.O=CO [Example 115, formic acid-N-{3-[2-({[8-bromo-2-(morpholin-4-yl)pyrazolo[1,5-a][1,3,5]triazin-4-yl]amino}methyl)-1H-benzimidazol-4-yl]propyl}acetamide (1/1)] |
| – | 4.95 | CN1CCN(c2nc(NCc3nc4ccccc4[nH]3)n3ncc(Br)c3n2)CC1=O [Example 131, 4-(4-{[(1H-benzimidazol-2-yl)methyl]amino}-8-bromopyrazolo[1,5-a][1,3,5]triazin-2-yl)-1-methylpiperazin-2-one] |
| – | < 4.70 | Brc1cnn2c(NCc3nc4ccccc4[nH]3)nc(N3CCN(C4CC4)CC3)nc12 [Example 138, N-[(1H-benzimidazol-2-yl)methyl]-8-bromo-2-(4-cyclopropylpiperazin-1-yl)pyrazolo[1,5-a][1,3,5]triazin-4-amine] |
| – | 4.82 | FC(F)(F)CN1CCN(c2nc(NCc3nc4ccccc4[nH]3)n3ncc(Br)c3n2)CC1 [Example 139, N-[(1H-benzimidazol-2-yl)methyl]-8-bromo-2-[4-(2,2,2-trifluoroethyl)piperazin-1-yl]pyrazolo[1,5-a][1,3,5]triazin-4-amine] |
| – | 5.09 | C[C@@H]1CCCCN1c1nc(NCc2nc3ccccc3[nH]2)n2ncc(Br)c2n1 [Example 140, N-[(1H-benzimidazol-2-yl)methyl]-8-bromo-2-[(2R)-2-methylpiperidin-1-yl]pyrazolo[1,5-a][1,3,5]triazin-4-amine] |
| – | < 4.70 | Brc1cnn2c(NCc3nc4ccccc4[nH]3)nc(N3CCC3)nc12 [Example 143, 2-(azetidin-1-yl)-N-[(1H-benzimidazol-2-yl)methyl]-8-bromopyrazolo[1,5-a][1,3,5]triazin-4-amine] |
| – | 5.43 | CN1CCN(c2nc(NCc3nc4ccccc4[nH]3)n3ncc(Br)c3n2)C(CO)C1 (centres unmarked) [Example 155, [1-[4-(1H-benzimidazol-2-ylmethylamino)-8-bromo-pyrazolo[1,5-a][1,3,5]triazin-2-yl]-4-methyl-piperazin-2-yl]methanol] |
| – | 5.03 | CC1CN(C)CCN1c1nc(NCc2nc3ccccc3[nH]2)n2ncc(Br)c2n1 (centres unmarked) [Example 156, N-(1H-benzimidazol-2-ylmethyl)-8-bromo-2-(2,4-dimethylpiperazin-1-yl)pyrazolo[1,5-a][1,3,5]triazin-4-amine] |
